The target of test [1] is H1047R PIK3CA enzyme (Homo sapiens, UniProt P42336, H1047R). The experiment in a line: ADP-Glo Biochemical PIK3CA Kinase Assay.
The nature of test [2]: cells. Particulars: Homo sapiens, MCF-10A, read-out: MCF10A IC50.

Bounds are passed on as bounds.

H1047R PIK3CA enzyme, sequence (P42336 whole entry H1047R): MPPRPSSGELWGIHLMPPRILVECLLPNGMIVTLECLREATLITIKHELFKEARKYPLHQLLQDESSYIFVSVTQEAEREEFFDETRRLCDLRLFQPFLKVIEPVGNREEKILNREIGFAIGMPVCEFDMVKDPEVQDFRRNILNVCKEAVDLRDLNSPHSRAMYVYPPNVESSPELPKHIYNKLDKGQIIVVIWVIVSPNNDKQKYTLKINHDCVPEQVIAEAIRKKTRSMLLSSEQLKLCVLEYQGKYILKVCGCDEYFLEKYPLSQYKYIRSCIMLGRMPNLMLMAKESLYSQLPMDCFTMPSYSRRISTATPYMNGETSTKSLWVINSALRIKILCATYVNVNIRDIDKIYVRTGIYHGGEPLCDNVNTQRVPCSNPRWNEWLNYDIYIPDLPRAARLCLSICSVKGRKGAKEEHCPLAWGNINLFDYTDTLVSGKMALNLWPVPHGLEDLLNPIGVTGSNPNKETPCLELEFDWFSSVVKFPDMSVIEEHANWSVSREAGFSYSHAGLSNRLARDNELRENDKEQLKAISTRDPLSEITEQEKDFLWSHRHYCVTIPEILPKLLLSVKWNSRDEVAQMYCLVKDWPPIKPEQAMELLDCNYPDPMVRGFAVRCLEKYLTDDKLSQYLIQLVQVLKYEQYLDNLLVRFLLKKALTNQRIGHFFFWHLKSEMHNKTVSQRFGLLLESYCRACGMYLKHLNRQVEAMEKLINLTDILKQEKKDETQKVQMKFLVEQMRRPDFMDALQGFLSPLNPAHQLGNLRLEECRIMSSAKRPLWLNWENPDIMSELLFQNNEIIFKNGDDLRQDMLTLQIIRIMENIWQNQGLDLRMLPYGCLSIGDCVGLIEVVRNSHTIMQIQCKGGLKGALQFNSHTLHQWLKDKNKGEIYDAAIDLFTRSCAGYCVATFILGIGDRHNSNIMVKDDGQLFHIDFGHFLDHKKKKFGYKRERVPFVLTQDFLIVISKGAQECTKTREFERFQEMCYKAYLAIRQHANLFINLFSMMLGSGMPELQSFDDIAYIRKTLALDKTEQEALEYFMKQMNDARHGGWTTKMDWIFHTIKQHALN
H1047R PIK3CA enzyme, sequence (P27986 whole entry partner): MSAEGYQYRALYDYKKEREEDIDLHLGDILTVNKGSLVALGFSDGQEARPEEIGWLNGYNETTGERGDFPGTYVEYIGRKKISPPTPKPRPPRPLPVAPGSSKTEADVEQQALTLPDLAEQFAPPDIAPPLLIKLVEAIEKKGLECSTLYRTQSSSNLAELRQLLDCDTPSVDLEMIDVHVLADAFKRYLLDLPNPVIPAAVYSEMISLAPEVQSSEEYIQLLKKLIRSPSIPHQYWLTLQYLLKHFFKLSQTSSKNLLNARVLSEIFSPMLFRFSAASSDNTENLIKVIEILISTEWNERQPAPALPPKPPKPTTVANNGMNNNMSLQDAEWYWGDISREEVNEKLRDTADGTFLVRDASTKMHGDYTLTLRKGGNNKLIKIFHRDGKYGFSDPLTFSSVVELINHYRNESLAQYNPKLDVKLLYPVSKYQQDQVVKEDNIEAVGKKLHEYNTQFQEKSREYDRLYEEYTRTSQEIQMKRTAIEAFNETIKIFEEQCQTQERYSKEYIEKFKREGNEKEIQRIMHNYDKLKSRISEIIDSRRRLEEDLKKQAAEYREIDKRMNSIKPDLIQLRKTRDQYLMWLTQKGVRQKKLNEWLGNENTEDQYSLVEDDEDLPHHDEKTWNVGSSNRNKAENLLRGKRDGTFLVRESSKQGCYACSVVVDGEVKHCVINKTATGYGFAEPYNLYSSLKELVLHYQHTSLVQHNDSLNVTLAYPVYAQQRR

Turning to `O=C1N[C@@H](c2cc(F)ccc2Cl)c2c(NC(=O)N3C[C@@](O)(C(F)(F)F)c4cc(F)ccc43)cc(Cl)cc21` (single isomer, unassigned) [Compound I-2513], the IC50 in test [1] is ≤ 100 nM; in test [2] it was < 1000 nM.

Turning to `N#CCOc1cc(NC(=O)c2cc(F)cc(C(F)(F)F)c2)c2c(c1)C(=O)NC2c1cc(F)ccc1Cl` (centres unmarked) [Compound I-1160], the results for the IC50 in test [1] and in test [2] were ≤ 100 nM and < 1000 nM, respectively.

`O=C(Nc1cc(-c2cn[nH]c2)cc2c1[C@H](c1cc(F)ccc1Cl)NC2=O)c1cc(F)cc(C(F)(F)F)c1` [Compound I-1078]: the results for the IC50 in test [1] and in test [2] were ≤ 100 nM and < 1000 nM, respectively.

Regarding `O=C(Nc1cc(-n2cccn2)cc2c1C(c1cc(F)ccc1Cl)NC2=O)c1cc(F)cc(C(F)(F)F)c1` (centres unmarked) [Compound I-960], the half-maximal inhibitory concentration (IC50) was ≤ 100 nM in test [1] and < 1000 nM in test [2].

For `[2H]C1(c2cc(F)ccc2Cl)NC(=O)c2cccc(NC(=O)N3CC(O)(C(F)(F)F)c4cc(F)ccc43)c21` (centres unmarked) [Compound I-2648], the IC50 is ≤ 100 nM in test [1] and < 1000 nM in test [2].

In the case of `O=C(Nc1cc(NC2=NCCO2)cc2c1C(c1cc(F)ccc1Cl)NC2=O)c1cc(F)cc(C(F)(F)F)c1` (centres unmarked) [Compound I-2256], the IC50 in test [1] is ≤ 100 nM; in test [2] it was 1000 to 5000 nM.

For the compound `Cc1ccccc1C1NC(=O)c2cccc(NC(=O)c3csc4ccc(F)cc34)c21` (centres unmarked) [Compound I-26], the IC50 is 100 to 500 nM in test [1] and 1000 to 5000 nM in test [2].

`COc1nccc(-c2cc(NC(=O)c3cc(F)cc(C(F)(F)F)c3)c3c(c2)C(=O)NC3c2cc(F)ccc2Cl)n1` (centres unmarked) [Compound I-1105]: the IC50 in test [1] was ≤ 100 nM; in test [2], < 1000 nM.

For `Cc1ccccc1C1NC(=O)c2cccc(NC(=O)N3CC(C)(C)c4ccccc43)c21` (centres unmarked) [Compound I-45], the values for the IC50 in test [1] and in test [2] were 1000 to 10000 nM and 10000 to 36000 nM, respectively.

`O=C1N[C@@H](c2cc(F)ccc2Cl)c2c(NC(=O)N3C[C@H](O)c4cc(F)ccc43)cc(-n3cccn3)cc21` (single isomer, unassigned) [Compound I-2364]: the IC50 in test [1] was ≤ 100 nM; in test [2] it was 1000 to 5000 nM.

For `Cn1nncc1-c1cc(NC(=O)c2cc(F)cc(C(F)(F)F)c2)c2c(c1)C(=O)NC2c1cc(F)ccc1Cl` (centres unmarked) [Compound I-1030], the figures for the IC50 in test [1] and in test [2] were ≤ 100 nM and < 1000 nM, respectively.

As to `COCCc1cc(NC(=O)c2cc(F)cc(C(F)(F)F)c2)c2c(c1)C(=O)NC2c1cc(F)ccc1Cl` (centres unmarked) [Compound I-1020], the figures for the IC50 in test [1] and in test [2] were ≤ 100 nM and < 1000 nM, respectively.

As for `Cn1cc(Nc2cc(NC(=O)c3cc(F)cc(C(F)(F)F)c3)c3c(c2)C(=O)NC3c2cc(F)ccc2Cl)cn1` (centres unmarked) [Compound I-917], the IC50 in test [1] was ≤ 100 nM; in test [2], < 1000 nM.

For `NCCc1cc(NC(=O)N2C[C@@](O)(C(F)(F)F)c3cc(F)ccc32)c2c(c1)C(=O)N[C@H]2c1cc(F)ccc1Cl` (single isomer, unassigned) [Compound I-2581], the IC50 is ≤ 100 nM in test [1] and 10000 to 36000 nM in test [2].

On to `O=C1NC(c2cc(F)ccc2Cl)c2c(NC(=O)c3nsc4ccccc34)cccc21` (centres unmarked) [Compound I-83], for which the IC50 was ≤ 100 nM in test [1] and < 1000 nM in test [2].

For `O=C1N[C@@H](c2cc(F)ccc2Cl)c2c(NC(=O)N3CCc4ccccc43)cc(-c3ccc4ncnn4c3)cc21` (stereo in doubt) [Compound I-1715], the IC50 was ≤ 100 nM in test [1] and < 1000 nM in test [2].

For `O=C(Nc1cc(-c2ccc3c(c2)C(=O)NCCO3)cc2c1C(c1cc(F)ccc1Cl)NC2=O)c1cc(F)cc(C(F)(F)F)c1` (centres unmarked) [Compound I-1048], the concentration for half-maximal inhibition (IC50) in test [1] was ≤ 100 nM; in test [2] it was < 1000 nM.

Take `O=C(Nc1cc(-c2nccs2)cc2c1C(c1cc(F)ccc1Cl)NC2=O)c1cc(F)cc(C(F)(F)F)c1` (centres unmarked) [Compound I-921]: the IC50 in test [1] is ≤ 100 nM; in test [2], < 1000 nM.

With `Cc1coc(Nc2cc(NC(=O)c3cc(F)cc(C(F)(F)F)c3)c3c(c2)C(=O)NC3c2cc(F)ccc2Cl)n1` (centres unmarked) [Compound I-964], the IC50 in test [1] is ≤ 100 nM; in test [2] it was < 1000 nM.

In the case of `O=C(Nc1cc(NC2=N[C@@H](C(F)(F)F)CO2)cc2c1[C@H](c1cc(F)ccc1Cl)NC2=O)c1cc(F)cc(C(F)(F)F)c1` (single isomer, unassigned) [Compound I-2388], the IC50 in test [1] is ≤ 100 nM; in test [2], 1000 to 5000 nM.

As for `O=C(Nc1cc(-c2ncco2)cc2c1C(c1cc(F)ccc1Cl)NC2=O)c1cc(F)cc(C(F)(F)F)c1` (centres unmarked) [Compound I-915], the values for the IC50 in test [1] and in test [2] were ≤ 100 nM and < 1000 nM, respectively.

For `CC(O)c1cc(NC(=O)N2CC(O)c3ccccc32)c2c(c1)C(=O)NC2c1cc(F)ccc1Cl` (centres unmarked) [Compound I-2288], the IC50 in test [1] is ≤ 100 nM; in test [2], 10000 to 36000 nM.

In the case of `CC(C)(O)c1cc(NC(=O)c2nsc3ccccc23)c2c(c1)C(=O)N[C@H]2c1cc(F)ccc1Cl` [Compound I-192], the figures for the half-maximal inhibitory concentration (IC50) in test [1] and in test [2] were ≤ 100 nM and < 1000 nM, respectively.

For `Cn1cc2cc(-c3cc(NC(=O)c4cc(F)cc(C(F)(F)F)c4)c4c(c3)C(=O)NC4c3cc(F)ccc3Cl)ccc2n1` (centres unmarked) [Compound I-1029], the IC50 in test [1] is ≤ 100 nM; in test [2], < 1000 nM.

As to `Cc1ccccc1[C@@H]1NC(=O)c2cc(C(=O)NCC(F)F)cc(NC(=O)c3nsc4ccccc34)c21` [Compound I-166], the IC50 is ≤ 100 nM in test [1] and < 1000 nM in test [2].

Regarding `CN(C)c1cc(NC(=O)N2C[C@](O)(C(F)(F)F)c3cc(F)ccc32)c2c(n1)C(=O)N[C@H]2c1cc(F)ccc1Cl` (single isomer, unassigned) [Compound I-2690], the IC50 in test [1] was ≤ 100 nM; in test [2] it was < 1000 nM.

For the compound `O=C(Nc1cc(N2CCn3ncnc3C2)cc2c1C(c1cc(F)ccc1Cl)NC2=O)c1cc(F)cc(C(F)(F)F)c1` (centres unmarked) [Compound I-1040], the IC50 was ≤ 100 nM in test [1] and 1000 to 5000 nM in test [2].

As to `C[C@@H](C#N)Cn1cc(-c2cc(NC(=O)N3C[C@@H](O)c4cc(F)ccc43)c3c(c2)C(=O)N[C@H]3c2cc(F)ccc2Cl)cn1` (single isomer, unassigned) [Compound I-2503], the IC50 is ≤ 100 nM in test [1] and 5000 to 10000 nM in test [2].

In the case of `CC(C)(C)OC(=O)N1CC(n2cc(-c3cc(NC(=O)c4cc(F)cc(C(F)(F)F)c4)c4c(c3)C(=O)NC4c3cc(F)ccc3Cl)cn2)C1` (centres unmarked) [Compound I-944], the results for the IC50 in test [1] and in test [2] were ≤ 100 nM and 5000 to 10000 nM, respectively.

Regarding `O=C1NC(c2cc(F)ccc2C(F)F)c2c(NC(=O)N3CC(O)c4cc(F)ccc43)cc(Br)cc21` (centres unmarked) [Compound I-2257], the IC50 in test [1] is ≤ 100 nM; in test [2], 1000 to 5000 nM.

For `O=C(Nc1cc(-c2cnn(C3CC3)c2)cc2c1[C@H](c1cc(F)ccc1Cl)NC2=O)c1cc(F)cc(C(F)(F)F)c1` (single isomer, unassigned) [Compound I-1022], the IC50 in test [1] is ≤ 100 nM; in test [2], < 1000 nM.

In the case of `Cc1nc2ncc(-c3cc(NC(=O)c4cc(F)cc(C(F)(F)F)c4)c4c(c3)C(=O)NC4c3cc(F)ccc3Cl)cn2n1` (centres unmarked) [Compound I-1124], the figures for the IC50 in test [1] and in test [2] were ≤ 100 nM and < 1000 nM, respectively.

Regarding `O=C(Nc1cc(CC2(O)CNC2)cc2c1C(c1cc(F)ccc1Cl)NC2=O)c1cc(F)cc(C(F)(F)F)c1` (centres unmarked) [Compound I-926], the results for the IC50 in test [1] and in test [2] were ≤ 100 nM and 10000 to 36000 nM, respectively.

Take `Cc1ccccc1C1NC(=O)c2cc(NC(C)C)cc(NC(=O)c3csc4ccccc34)c21` (centres unmarked) [Compound I-53]: the IC50 in test [1] is ≤ 100 nM; in test [2] it was < 1000 nM.

For the compound `Cc1ccccc1C1NC(=O)c2cc(C(=O)NCC(F)F)cc(NC(=O)c3nsc4ccccc34)c21` (centres unmarked) [Compound I-121], the IC50 was ≤ 100 nM in test [1] and < 1000 nM in test [2].

In the case of `COc1ncccc1-c1cc(NC(=O)c2cc(F)cc(C(F)(F)F)c2)c2c(c1)C(=O)NC2c1cc(F)ccc1Cl` (centres unmarked) [Compound I-1091], the IC50 in test [1] is ≤ 100 nM; in test [2], < 1000 nM.

Regarding `O=C(Nc1cc(-c2ccc3ncnn3c2)cc2c1[C@@H](c1cc(F)c(F)cc1Cl)NC2=O)c1cc(F)cc(C(F)(F)F)c1` [Compound I-1061], the figures for the IC50 in test [1] and in test [2] were ≤ 100 nM and < 1000 nM, respectively.

Turning to `O=C(Nc1cc(Br)cc2c1C(c1cc(F)ccc1Cl)NC2=O)c1cc(F)cc(C(F)(F)F)c1` (centres unmarked) [Compound I-124], the IC50 in test [1] is ≤ 100 nM; in test [2], 1000 to 5000 nM.

`Cn1cccc(-c2cc(NC(=O)c3cc(F)cc(C(F)(F)F)c3)c3c(c2)C(=O)NC3c2cc(F)ccc2Cl)c1=O` (centres unmarked) [Compound I-901]: the figures for the IC50 in test [1] and in test [2] were 100 to 500 nM and 1000 to 5000 nM, respectively.

`CC(C)(CN)n1cc(-c2cc(NC(=O)N3C[C@@](O)(C(F)(F)F)c4cc(F)ccc43)c3c(c2)C(=O)N[C@@H]3c2cc(F)ccc2Cl)cn1` (single isomer, unassigned) [Compound I-2649]: the IC50 in test [1] was ≤ 100 nM; in test [2], 1000 to 5000 nM.

`O=C(Nc1cc(-c2cccn3nccc23)cc2c1C(c1cc(F)ccc1Cl)NC2=O)c1cc(F)cc(C(F)(F)F)c1` (centres unmarked) [Compound I-983]: the IC50 in test [1] is ≤ 100 nM; in test [2], < 1000 nM.

On to `O=C1NC(c2cc(F)ccc2Cl)c2c(NC(=O)c3nsc4ccccc34)cc(Br)cc21` (centres unmarked) [Compound I-144], for which the IC50 in test [1] was ≤ 100 nM; in test [2], 5000 to 10000 nM.

Regarding `O=C(Nc1cc(-c2cnn(C3CC3)c2)cc2c1C(c1cc(F)ccc1Cl)NC2=O)c1cc(F)cc(C(F)(F)F)c1` (centres unmarked) [Compound I-942], the IC50 was ≤ 100 nM in test [1] and < 1000 nM in test [2].

In the case of `Cc1nccn1-c1cc(NC(=O)N2C[C@@](O)(C(F)(F)F)c3cc(F)ccc32)c2c(c1)C(=O)N[C@@H]2c1cc(F)ccc1Cl` (single isomer, unassigned) [Compound I-2661], the IC50 in test [1] was ≤ 100 nM; in test [2], < 1000 nM.

On to `O=C1N[C@@H](c2cc(F)ccc2Cl)c2c(NC(=O)N3C[C@@](O)(C(F)(F)F)c4ccccc43)cc(Cl)cc21` (single isomer, unassigned) [Compound I-2509], for which the figures for the IC50 in test [1] and in test [2] were ≤ 100 nM and < 1000 nM, respectively.

As for `CNc1cc(NC(=O)N2C[C@@](O)(C(F)(F)F)c3cc(F)ccc32)c2c(c1)C(=O)N[C@@H]2c1cc(F)ccc1Cl` (single isomer, unassigned) [Compound I-2640], the figures for the IC50 in test [1] and in test [2] were ≤ 100 nM and < 1000 nM, respectively.

The record behind these values is patent US12581252B2, “Substituted pyrrolo[3,4-b]pyridines as PI3K-α inhibitors” (Relay Therapeutics, Inc., priority 2020, dated 2026).
